Data set [1] addresses recombinant human CCR5 receptor (Homo sapiens, UniProt P51681). As to the kind of experiment: in vitro radioligand binding assay, inhibition of binding of iodinated RANTES or MIP-1α (scintillation proximity). Particulars: membranes from Chinese hamster ovary cells expressing recombinant human CCR5; 0.1 nM iodinated RANTES or MIP-1α; read-out: IC50 (concentration of compound which displaced 50% of bound iodinated RANTES or MIP-1α). How it is done: The ability of compounds to inhibit the binding of RANTES or MIP-1α was assessed by an in vitro radioligand binding assay. Membranes were prepared from Chinese hamster ovary cells which expressed the recombinant human CCR5 receptor. These membranes were incubated with 0.1 nM iodinated RANTES or MP-1α, scintillation proximity beads and various concentrations of the compounds of the invention in 96-well plates. The amount of iodinated RANTES or MIP-1α bound to the receptor was determined by scintillation counting. Competition curves were obtained for compounds and the concentration of compound which displaced 50% of bound iodinated RANTES or MIP-1α was calculated (IC50).
(SPA uses beads or plates that emit light when radiolabelled molecules are held near them.)

One may read the melting point as the temperature of the solid-liquid transition.

Chain of recombinant human CCR5 receptor (P51681 whole entry): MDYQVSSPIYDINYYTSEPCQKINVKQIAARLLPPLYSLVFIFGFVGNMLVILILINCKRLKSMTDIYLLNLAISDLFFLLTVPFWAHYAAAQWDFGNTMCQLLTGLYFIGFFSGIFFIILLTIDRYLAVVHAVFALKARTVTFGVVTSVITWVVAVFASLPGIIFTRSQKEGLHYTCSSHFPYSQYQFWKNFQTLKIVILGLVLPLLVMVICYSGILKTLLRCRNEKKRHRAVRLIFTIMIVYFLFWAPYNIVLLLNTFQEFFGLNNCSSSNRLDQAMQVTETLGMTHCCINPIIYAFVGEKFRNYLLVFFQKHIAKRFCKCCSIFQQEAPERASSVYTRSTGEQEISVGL

Consider `CCN(C(=O)Cc1ccc(S(C)(=O)=O)cc1)C1CCN(CC[C@H](NC(=O)C2CCN(C(C)=O)CC2)c2ccccc2)CC1` [Compound 1 of Table I, (S)-1-acetyl-piperidine-4-carboxylic acid [3-(4-{ethyl-[2-(4-methanesulfonyl-phenyl)-acetyl]-amino}-piperidin-1-yl)-1-phenyl-propyl]-amide], for which the IC50 in data set [1] is 39 nM.

With `CCN(C(=O)Cc1ccc(S(C)(=O)=O)cc1)C1CCN(CC[C@H](NC(=O)OC(C)(C)C)c2ccccc2)CC1` [Compound 1 of Table II, (S)-[3-(4-{ethyl-[2-(4-methanesulfonyl-phenyl)-acetyl]-amino}-piperidin-1-yl)-1-phenyl-propyl]-carbamic acid tert-butyl ester], the melting point is 115 to 116 °C.

`CCN(C(=O)Cc1ccc(S(C)(=O)=O)cc1)C1CCN(CC[C@H](NC(=O)OCCOC)c2ccccc2)CC1` [Compound 3 of Table II]: the IC50 in data set [1] was determined as 110 nM.

In the case of `CCN(C(=O)Cc1ccc(S(C)(=O)=O)cc1)C1CCN(CC[C@H](NC(=O)C2CCN(S(C)(=O)=O)CC2)c2ccccc2)CC1` [Compound 5 of Table I], in data set [1], the IC50 stood at 28 nM.

Source of the values: patent US20060167048A1, “N-4-piperidinyl compounds as ccr5 modulators” (priority 2002, published 2006).
